The values below are quoted from earlier work in patent US20040248850A1, “Compounds for the treatment of HIV infection” (Kemia, Inc., priority 2003, published 2004).

This series concerns Human Immunodeficiency Virus Type 1. Conditions: in cell culture.

For orientation: EC50 means the concentration giving half of the maximal effect. As to enfuvirtide, the EC50 is listed as 1 ng/mL.
